Experimental findings from patent publication US20120004244A1, “Bis Aromatic Compounds for Use as LTC4 Synthase Inhibitors” (BIOLIPOX AB, priority 2009, published 2012) are described below.

pIC50: −log10 of the molar value.

This assay addresses T1, Recombinant human LTC4 synthase (Homo sapiens, UniProt Q16873).
T1 construct: made in house; host or cells: Pichia pastoris ('Piccia pastoralis' [sic])
T1 sequence (Q16873 1-150): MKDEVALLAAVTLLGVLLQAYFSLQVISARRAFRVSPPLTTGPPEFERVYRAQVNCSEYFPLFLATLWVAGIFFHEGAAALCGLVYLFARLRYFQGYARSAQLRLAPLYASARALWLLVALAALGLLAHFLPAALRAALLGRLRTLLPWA
In words: LTC4 synthase in vitro assay (LTA4 to LTC4, HTRF detection). The assay is classed as biochemical. The note with it: for inhibition at 10 µM: 5 min, total concentration of title compound in the assay 10 μM. How it is done:
In the assay, LTC4 synthase catalyses the reaction where the substrate LTA4 is converted to LTC4. Recombinant human LTC4 synthase is expressed in Piccia pastoralis and the purified enzyme is dissolved in 25 mM tris-buffer pH 7.8 supplemented with 0.1 mM glutathione (GSH) and stored at −80° C. The assay is performed in phosphate buffered saline (PBS) pH 7.4 and 5 mM GSH in 384-well plates.
The following is added chronologically to each well:
1.48 μL LTC4 synthase in PBS with 5 mM GSH. The total protein concentration in this solution is 0.5 μg/mL. 2. 1 μL inhibitor in DMSO (final concentration 10 μM). 3. Incubation of the plate at room temperature for 10 min. 4. 1 μL LTA4 (final concentration 2.5 μM). 5. Incubation of the plate at room temperature for 5 min. 6. 10 μL of the incubation mixture is analysed using homogenous time resolved fluorescent (HTRF) detection.
In general terms: Time-resolved FRET reads energy transfer from a long-lived donor to a nearby acceptor.

Broadly, the pIC50 is the IC50 on a negative log10 scale, so that one unit is a factor of ten. For the compound `CN(c1ccc(Cl)cc1)c1ccc(C(=O)c2ccc(NCc3ccc4c(c3)OCO4)c(C(=O)O)c2)nc1` [2:12, 5-{5-[(4-Chlorophenyl)(methyl)amino]picolinoyl}-2-(3,4-methylenedioxybenzylamino)benzoic acid], the pIC50 is 7.18.

With `COc1ccc(Nc2ccc(C(=O)c3ccc(N(C)c4ccc(Cl)cc4)cn3)cc2C(=O)O)cc1` [2:13, 5-{5-[(4-Chlorophenyl)(methyl)amino]picolinoyl}-2-(4-methoxyphenylamino)benzoic acid], the pIC50 is 6.80.

On to `COc1ccccc1Nc1ccc(C(=O)c2ccc(N(C)c3ccc(Cl)cc3)cn2)cc1C(=O)O` [2:14, 5-{5-[(4-Chlorophenyl)(methyl)amino]picolinoyl}-2-(2-methoxyphenylamino)benzoic acid], for which the pIC50 is 7.17.

For `CN(c1ccc(Cl)cc1)c1ccc(C(=O)c2ccc(NC3CCC(F)(F)CC3)c(C(=O)O)c2)nc1` [2:15, 5-{5-[(4-Chlorophenyl)(methyl)amino]picolinoyl}-2-(4,4-difluorocyclohexylamino)benzoic acid], the pIC50 is 6.74.

Turning to `CN(c1ccc(Cl)cc1)c1ccc(C(=O)c2ccc(NC3CCOCC3)c(C(=O)O)c2)nc1` [2:16, 5-{5-[(4-Chlorophenyl)(methyl)amino]picolinoyl}-2-(4-tetrahydropyranylamino)benzoic acid], the pIC50 was 6.48.

`CN(c1ccc(Cl)cc1)c1ccc(C(=O)c2ccc(Nc3ccc(C(O)(C(F)(F)F)C(F)(F)F)cc3)c(C(=O)O)c2)nc1` [2:17, 5-{5-[(4-Chlorophenyl)(methyl)amino]picolinoyl}-2-[4-(1,1,1,3,3,3-hexafluoro-2-hydroxy-2-propyl)phenylamino]benzoic acid]: the pIC50 is 6.86.

Consider `CN(c1ccc(Cl)cc1)c1ccc(C(=O)c2ccc(Nc3cccc(S(C)(=O)=O)c3)c(C(=O)O)c2)nc1` [2:18, 5-{5-[(4-Chlorophenyl)(methyl)amino]picolinoyl}-2-(3-methylsulfonylphenyl-amino)benzoic acid], for which the pIC50 was 6.73.

`CN(c1ccc(Cl)cc1)c1ccc(C(=O)c2ccc(NC3CCSCC3)c(C(=O)O)c2)nc1` [2:19, 5-{5-[(4-Chlorophenyl)(methyl)amino]picolinoyl}-2-(4-tetrahydrothiopyranylamino)benzoic acid]: the negative logarithm of the IC50 (pIC50) is 6.83.

Regarding `CN(c1ccc(Cl)cc1)c1ccc(C(=O)c2ccc(NC3CCS(=O)(=O)CC3)c(C(=O)O)c2)nc1` [2:20, 5-{5-[(4-Chlorophenyl)(methyl)amino]picolinoyl}-2-(1,1-dioxotetrahydrothiopyran-4-ylamino)benzoic acid], the pIC50 was 6.18.

For `CN(c1ccc(Cl)cc1)c1ccc(C(=O)c2ccc(Nc3ccccc3)c(C(=O)O)c2)nc1` [2:21, 5-{5-[(4-Chlorophenyl)(methyl)amino]picolinoyl}-2-phenylaminobenzoic acid], the pIC50 is 6.86.

As for `CN(c1ccc(Cl)cc1)c1ccc(C(=O)c2ccc(N3CCC(C(F)(F)F)CC3)c(C(=O)O)c2)nc1` [2:22, 5-{5-[(4-Chlorophenyl)(methyl)amino]picolinoyl}-2-(4-trifluoromethyl-1-piperidinyl)benzoic acid], the pIC50 was 5.70.

Broadly, the inhibition is the relative decrease from the control value, in per cent. On to `CN(c1ccc(Cl)cc1)c1ccc(C(=O)c2ccc(NC(=O)c3ccc(C(F)(F)F)cc3)c(C(=O)O)c2)nc1` [3:1, 5-{5-[(4-Chlorophenyl)(methyl)amino]picolinoyl}-2-(4-trifluoromethylbenzamido)-benzoic acid], for which the pIC50 was 7.48 and the inhibition at 10 µM came out at 100%.

Turning to `CN(c1ccc(Cl)cc1)c1ccc(C(=O)c2ccc(NC(=O)c3cc(Cl)ccc3O)c(C(=O)O)c2)nc1` [3:2, 2-(5-Chloro-2-hydroxybenzamido)-5-{5-[(4-chlorophenyl)(methyl)amino]-picolinoyl}benzoic acid], the pIC50 was 7.60 and the inhibition at 10 µM came out at 100%.

With `CN(c1ccc(Cl)cc1)c1ccc(C(=O)c2ccc(NC(=O)c3ccccc3)c(C(=O)O)c2)nc1` [3:3, 2-Benzamido-5-{5-[(4-chlorophenyl)(methyl)amino]picolinoyl}benzoic acid], the pIC50 is 7.47.

In the case of `COc1ccc(C(=O)Nc2ccc(C(=O)c3ccc(N(C)c4ccc(Cl)cc4)cn3)cc2C(=O)O)cc1` [3:4, 5-{5-[(4-Chlorophenyl)(methyl)amino]picolinoyl}-2-(4-methoxybenzamido)-benzoic acid], the pIC50 is 7.64.

With `COc1ccccc1C(=O)Nc1ccc(C(=O)c2ccc(N(C)c3ccc(Cl)cc3)cn2)cc1C(=O)O` [3:5, 5-{5-[(4-Chlorophenyl)(methyl)amino]picolinoyl}-2-(2-methoxybenzamido)-benzoic acid], the pIC50 is 7.49.

Regarding `CN(c1ccc(Cl)cc1)c1ccc(C(=O)c2ccc(NC(=O)c3ccc4c(c3)OCO4)c(C(=O)O)c2)nc1` [3:6, 5-{5-[(4-Chlorophenyl)(methyl)amino]picolinoyl}-2-(3,4-methylenedioxy-benzamido)benzoic acid], the pIC50 is 7.96.

As for `COc1ccc(C(=O)Nc2ccc(C(=O)c3ccc(N(CC4CC4)c4ccc(Cl)cc4)cn3)cc2C(=O)O)cc1` [3:7, 5-{5-[(4-Chlorophenyl)(cyclopropylmethyl)amino]picolinoyl}-2-(4-methoxy-benzamido)benzoic acid], the pIC50 was 7.51.

In the case of `COc1ccccc1C(=O)Nc1ccc(C(=O)c2ccc(N(CC3CC3)c3ccc(Cl)cc3)cn2)cc1C(=O)O` [3:8, 5-{5-[(4-Chlorophenyl)(cyclopropylmethyl)amino]picolinoyl}-2-(2-methoxy-benzamido)benzoic acid], the pIC50 is 7.40.

For `O=C(Nc1ccc(C(=O)c2ccc(N(CC3CC3)c3ccc(Cl)cc3)cn2)cc1C(=O)O)c1ccc2c(c1)OCO2` [3:9, 5-{5-[(4-Chlorophenyl)(cyclopropylmethyl)amino]picolinoyl}-2-(3,4-methylene-dioxybenzamido)benzoic acid], the pIC50 is 7.68.

Turning to `COc1cccc(C(=O)Nc2ccc(C(=O)c3ccc(N(C)c4ccc(Cl)cc4)cn3)cc2C(=O)O)c1` [3:10, 5-{5-[(4-Chlorophenyl)(methyl)amino]picolinoyl}-2-(3-methoxybenzamido)-benzoic acid], the pIC50 was 7.62.

Regarding `CN(c1ccc(Cl)cc1)c1ccc(C(=O)c2ccc(NC(=O)c3ccc(OC(F)(F)F)cc3)c(C(=O)O)c2)nc1` [3:11, 5-{5-[(4-Chlorophenyl)(methyl)amino]picolinoyl}-2-(4-trifluoromethoxy-benzamido)benzoic acid], the negative logarithm of the IC50 (pIC50) is 7.36.

As for `CN(c1ccc(Cl)cc1)c1ccc(C(=O)c2ccc(NC(=O)c3ccccc3OC(F)(F)F)c(C(=O)O)c2)nc1` [3:12, 5-{5-[(4-Chlorophenyl)(methyl)amino]picolinoyl}-2-(2-trifluoromethoxy-benzamido)benzoic acid], the pIC50 is 6.98.

`COc1ccc(C(=O)Nc2ccc(C(=O)c3ccc(N(C)c4ccc(Cl)cc4)cn3)cc2C(=O)O)c(OC)c1` [3:13, 5-{5-[(4-Chlorophenyl)(methyl)amino]picolinoyl}-2-(2,4-dimethoxy-benzamido)benzoic acid]: the pIC50 is 7.64.

For `CN(c1ccc(Cl)cc1)c1ccc(C(=O)c2ccc(NC(=O)c3ccc(S(C)(=O)=O)cc3)c(C(=O)O)c2)nc1` [3:14, 5-{5-[(4-Chlorophenyl)(methyl)amino]picolinoyl}-2-(4-methylsulfonyl-benzamido)benzoic acid], the pIC50 was 7.17.

In the case of `CN(c1ccc(Cl)cc1)c1ccc(C(=O)c2ccc(NC(=O)c3ccc(S(=O)(=O)N(C)C)cc3)c(C(=O)O)c2)nc1` [3:15, 5-{5-[(4-Chlorophenyl)(methyl)amino]picolinoyl}-2-(4-dimethylsulfamoyl-benzamido)benzoic acid], the pIC50 is 7.39.

On to `COc1cc(C(=O)Nc2ccc(C(=O)c3ccc(N(C)c4ccc(Cl)cc4)cn3)cc2C(=O)O)cc(OC)c1OC` [3:16, 5-{5-[(4-Chlorophenyl)(methyl)amino]picolinoyl}-2-(3,4,5-trimethoxybenz-amido)benzoic acid], for which the pIC50 is 6.80.

On to `CN(c1ccc(Cl)cc1)c1ccc(C(=O)c2ccc(NC(=O)c3ccc4c(c3)OC(F)(F)O4)c(C(=O)O)c2)nc1` [3:17, 5-{5-[(4-Chlorophenyl)(methyl)amino]picolinoyl}-2-[3,4-(difluoromethylene-dioxy)benzamido]benzoic acid], for which the pIC50 is 7.42.

Turning to `CN(c1ccc(Cl)cc1)c1ccc(C(=O)c2ccc(NC(=O)c3cccc4c3OC(F)(F)O4)c(C(=O)O)c2)nc1` [3:18, 5-{5-[(4-Chlorophenyl)(methyl)amino]picolinoyl}-2-[2,3-(difluoromethylene-dioxy)benzamido]benzoic acid], the pIC50 is 6.95.

In the case of `CN(c1ccc(Cl)cc1)c1ccc(C(=O)c2ccc(NC(=O)c3ccc4c(c3)OCCO4)c(C(=O)O)c2)nc1` [3:19, 5-{5-[(4-Chlorophenyl)(methyl)amino]picolinoyl}-2-(3,4-ethylenedioxy-benzamido)benzoic acid], the pIC50 is 7.77.

For the compound `CN(c1ccc(Cl)cc1)c1ccc(C(=O)c2ccc(NC(=O)c3ccccc3C#N)c(C(=O)O)c2)nc1` [3:20, 5-{5-[(4-Chlorophenyl)(methyl)amino]picolinoyl}-2-(2-cyanobenzamido)benzoic acid], the pIC50 is 5.52.
